Legend:
saphenous artery rings = test: Vasorelaxant effect in vitro (phenylephrine-contracted saphenous artery rings); type: cell-based; conditions: Oryctolagus cuniculus; rabbit saphenous artery rings, phenylephrine-induced contraction
Method: Rabbits are anaesthetized and sacrificed by intravenous injection of thiopental sodium (about 50 mg/kg) and exsanguinated. The saphenous artery is removed and divided into rings 3 mm wide. The rings are mounted singly on in each case a pair of triangular hooks open at the end and made of 0.3 mm-thick special wire (Remanium®). Each ring is placed under an initial tension in 5 ml organ baths with Krebs-Henseleit solution which is at 37° C., is gassed with carbogen and has the following composition: NaCl 119 mM; KCl 4.8 mM; CaCl2×2 H2O 1 mM; MgSO4×7 H2O 1.4 mM; KH2PO4 1.2 mM; NaHCO3 25 mM; glucose 10 mM; bovine serum albumin 0.001%. The force of contraction is detected with Statham UC2 cells, amplified and digitized via A/D converters (DAS-1802 HC, Keithley Instruments, Munich) and recorded in parallel on chart recorders. Contractions are induced by addition of phenylephrine.
After several (generally 4) control cycles, the substance to be investigated is added in each further run in increasing dosage, and the level of the contraction achieved under the influence of the test substance is compared with the level of the contraction reached in the last preceding run. The concentration necessary to reduce the contraction reached in the preceding control by 50% is calculated from this (IC50). The standard application volume is 5 μl. The proportion of DMSO in the bath solution corresponds to 0.1%.

[1] = test system: recombinant guanylate cyclase reporter cell line (CHO reporter cell); test: Action at a recombinant guanylate cyclase reporter cell line; type: cell-based; conditions: CHO reporter cell in vitro; read-out: MEC (minimum effective concentration), sGC-activating activity in the CHO reporter cell
Method: The cellular action of the compounds according to the invention is determined at a recombinant guanylate cyclase reporter cell line, as described in F. Wunder et al., Anal. Biochem. 339, 104-112 (2005).

[2] = biological target: recombinant soluble guanylate cyclase (sGC), haem-free (Rattus norvegicus (Rat), UniProt P20595); test: Stimulation of recombinant soluble guanylate cyclase (sGC) in vitro, haem-free enzyme; type: biochemical; conditions: n = 5
Sequence of recombinant soluble guanylate cyclase (sGC), haem-free (P20595 whole entry): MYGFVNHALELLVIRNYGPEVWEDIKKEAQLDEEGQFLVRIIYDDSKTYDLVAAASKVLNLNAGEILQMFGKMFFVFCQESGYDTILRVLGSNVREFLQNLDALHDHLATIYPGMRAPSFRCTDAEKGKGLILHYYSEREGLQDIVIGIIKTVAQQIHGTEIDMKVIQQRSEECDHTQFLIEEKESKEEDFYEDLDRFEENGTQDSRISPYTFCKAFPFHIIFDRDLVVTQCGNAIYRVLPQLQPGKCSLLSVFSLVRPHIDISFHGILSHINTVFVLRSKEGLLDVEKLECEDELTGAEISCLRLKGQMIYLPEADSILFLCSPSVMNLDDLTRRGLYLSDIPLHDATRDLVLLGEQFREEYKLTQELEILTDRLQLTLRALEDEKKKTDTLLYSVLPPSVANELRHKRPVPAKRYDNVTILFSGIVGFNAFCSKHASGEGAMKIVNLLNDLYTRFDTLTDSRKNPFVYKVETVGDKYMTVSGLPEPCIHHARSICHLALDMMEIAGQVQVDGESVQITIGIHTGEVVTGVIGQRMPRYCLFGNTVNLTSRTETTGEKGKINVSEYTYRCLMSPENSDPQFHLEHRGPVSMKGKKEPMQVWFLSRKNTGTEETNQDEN
Sequence of recombinant soluble guanylate cyclase (sGC), haem-free (P19686 whole entry partner): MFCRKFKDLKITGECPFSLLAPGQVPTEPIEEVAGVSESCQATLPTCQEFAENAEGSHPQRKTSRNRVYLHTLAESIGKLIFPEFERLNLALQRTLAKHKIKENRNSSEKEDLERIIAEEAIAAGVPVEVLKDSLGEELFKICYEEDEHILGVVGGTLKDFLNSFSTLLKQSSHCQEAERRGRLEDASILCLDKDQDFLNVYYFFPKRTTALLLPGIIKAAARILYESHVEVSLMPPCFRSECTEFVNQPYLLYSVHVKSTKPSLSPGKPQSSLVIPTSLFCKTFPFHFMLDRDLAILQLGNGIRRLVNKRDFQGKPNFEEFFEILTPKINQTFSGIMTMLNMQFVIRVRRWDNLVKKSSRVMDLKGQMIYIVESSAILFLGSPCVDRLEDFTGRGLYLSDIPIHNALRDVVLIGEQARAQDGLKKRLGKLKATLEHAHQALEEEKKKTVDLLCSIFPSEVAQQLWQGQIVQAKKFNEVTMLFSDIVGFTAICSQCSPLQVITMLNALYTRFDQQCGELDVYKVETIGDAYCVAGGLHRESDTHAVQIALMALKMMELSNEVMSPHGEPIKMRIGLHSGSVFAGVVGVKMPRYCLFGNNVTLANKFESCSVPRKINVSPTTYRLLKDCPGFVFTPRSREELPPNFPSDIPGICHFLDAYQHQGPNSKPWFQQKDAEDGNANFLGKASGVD
Method: Investigations on the stimulation of recombinant soluble guanylate cyclase (sGC) by the compounds according to the invention with and without sodium nitroprusside, and with and without the haem-dependent sGC inhibitor 1H-1,2,4-oxadiazolo[4,3a]quinoxalin-1-one (ODQ), are carried out by the method described in detail in the following reference: M. Hoenicka, E. M. Becker, H. Apeler, T. Sirichoke. H. Schroeder, R. Gerzer and J.-P. Stasch, “Purified soluble guanylyl cyclase expressed in a baculovirus/Sf9 system: Stimulation by YC-1, nitric oxide, and […]”, J. Mol. Med. 77 (1999), 14-23. The haem-free guanylate cyclase is obtained by adding Tween 20 to the sample buffer (0.5% in the final concentration).
(§1) The activation of sGC by a test substance is reported as x-fold stimulation of the basal activity.

[3] = biological target: soluble guanylate cyclase (sGC) (Rattus norvegicus (Rat), UniProt P20595); test: Stimulation of sGC enzyme activity (PPi detection, luciferase); type: biochemical; conditions: sGC enzyme in vitro
Sequence of soluble guanylate cyclase (sGC) (P20595 whole entry): as the sequence (P20595 whole entry) above
Sequence of soluble guanylate cyclase (sGC) (P19686 whole entry partner): as the sequence (P19686 whole entry partner) above
Method: Soluble guanylate cyclase (sGC) converts on stimulation GTP into cGMP and pyrophosphate (PPi). PPi is detected with the aid of the assay described below. The signal produced in the assay increases as the reaction progresses and serves as a measure of the sGC enzyme activity under the given stimulation.
To carry out the assay, 29 μl of enzyme solution [0-10 nM soluble guanylate cyclase (prepared according to Hönicka et al, J. Mol. Med. 77, 14-23 (1999)) in 50 mM TEA, 2 mM MgC2, 0.1% BSA (fraction V), 0.005% Brij®, pH 7.5] are initially introduced into a microplate, and 1 μl of the substance to be tested (as a serially diluted solution in DMSO) is added. The mixture is incubated at room temperature for 10 min. Then 20 μl of detection mix [1.2 nM Firefly Luciferase (Photinus pyralis luciferase, Promega), 29 μM dehydroluciferin (prepared according to Bitler & McElroy, Arch. Biochem. Biophys. 72, 358 (1957)), 122 μM luciferin (Promega), 153 μM ATP (Sigma) and 0.4 mM DTT (Sigma) in 50 mM TEA, 2 mM MgCl2, 0.1% BSA (fraction V), 0.005% Brij®, pH 7.5] are added. The enzyme reaction is started by adding 20 μl of substrate solution [1.25 mM guanosine 5′-triphosphate (Sigma) in 50 mM TEA, 2 mM MgC2, 0.1% BSA (fraction V), 0.005% Brij®, pH 7.5] and measured continuously in a luminometer. The extent of the stimulation by the substance to be tested can be determined relative to the signal of the unstimulated reaction.
The activation of haem-free guanylate cyclase is examined by addition of 25 μM of 1H-1,2,4-oxadiazolo[4,3-a]quinoxalin-1-one (ODQ) to the enzyme solution and subsequent incubation for 30 minutes and compared to the stimulation of the native enzyme.

[4] = biological target: recombinant soluble guanylate cyclase (sGC), haem-containing (Rattus norvegicus (Rat), UniProt P20595); test: Stimulation of recombinant soluble guanylate cyclase (sGC) in vitro, haem-containing enzyme; type: biochemical; conditions: for Stimulation (x-fold) of haem-containing sGC, basal: n = 5
Sequence of recombinant soluble guanylate cyclase (sGC), haem-containing (P20595 whole entry): as the sequence (P20595 whole entry) above
Sequence of recombinant soluble guanylate cyclase (sGC), haem-containing (P19686 whole entry partner): as the sequence (P19686 whole entry partner) above
Source text: Hoenicka, E. M. Becker, H. Apeler, T. Sirichoke. H. Schroeder, R. Gerzer and J.-P. Stasch, “Purified soluble guanylyl cyclase expressed in a baculovirus/Sf9 system: Stimulation by YC-1, nitric oxide, and […]”, J. Mol. Med. 77 (1999), 14-23. The haem-free guanylate cyclase is obtained by adding Tween 20 to the sample buffer (0.5% in the final concentration).
as §1

IC50 (saphenous artery rings): 137 nM | Stimulation (x-fold) of haem-free sGC, basal ([2]; 0.01 μM Example 22): 1.2 ± 0.1 x-fold | Stimulation (x-fold) of haem-free sGC, basal ([2]; 0.1 μM Example 22): 1.6 ± 0.5 x-fold | Stimulation (x-fold) of haem-free sGC, basal ([2]; 1.0 μM Example 22): 4.9 ± 1.5 x-fold | Stimulation (x-fold) of haem-free sGC, basal ([2]; 10 μM Example 22): 14.2 ± 2.0 x-fold | MEC (minimum effective concentration), activating action at the sGC enzyme [3]: 2.4 nM | EC50 ([3]; read-out: EC50 (concentration at 50% of maximum efficacy), activating action at the sGC enzyme): 68 nM | Stimulation (x-fold) of haem-containing sGC, +0.01 μM DEA/NO ([4]; 0.01 μM Example 22 + 0.01 μM DEA/NO): 4.4 ± 1.3 x-fold | Stimulation (x-fold) of haem-containing sGC, +10 μM ODQ ([4]; 0.01 μM Example 22 + 10 μM ODQ): 5.7 ± 1.6 x-fold | Stimulation (x-fold) of haem-containing sGC, basal ([4]; 0.01 μM Example 22): 1.6 ± 0.3 x-fold | Stimulation (x-fold) of haem-containing sGC, +0.01 μM DEA/NO ([4]; 0.1 μM Example 22 + 0.01 μM DEA/NO): 3.4 ± 0.9 x-fold | Stimulation (x-fold) of haem-containing sGC, +10 μM ODQ ([4]; 0.1 μM Example 22 + 10 μM ODQ): 6.1 ± 1.7 x-fold | Stimulation (x-fold) of haem-containing sGC, basal ([4]; 0.1 μM Example 22): 1.6 ± 0.5 x-fold | Stimulation (x-fold) of haem-containing sGC, +0.01 μM DEA/NO ([4]; 1.0 μM Example 22 + 0.01 μM DEA/NO): 4.4 ± 1.4 x-fold | Stimulation (x-fold) of haem-containing sGC, +10 μM ODQ ([4]; 1.0 μM Example 22 + 10 μM ODQ): 8.4 ± 2.2 x-fold | Stimulation (x-fold) of haem-containing sGC, basal ([4]; 1.0 μM Example 22): 2.4 ± 1.0 x-fold | Stimulation (x-fold) of haem-containing sGC, +0.01 μM DEA/NO ([4]; 10 μM Example 22 + 0.01 μM DEA/NO): 7.8 ± 2.5 x-fold | Stimulation (x-fold) of haem-containing sGC, +10 μM ODQ ([4]; 10 μM Example 22 + 10 μM ODQ): 18.3 ± 5.4 x-fold | Stimulation (x-fold) of haem-containing sGC, basal ([4]; 10 μM Example 22): 4.9 ± 1.2 x-fold | Combination with the NO donor DEA/NO: synergistic effect on sGC stimulation ([4]; haem-containing sGC, combination with DEA/NO): no synergistic effect | Effect of the haem-dependent sGC inhibitor ODQ on the sGC activation ([4]; haem-containing sGC, with ODQ): not blocked
SMILES: C[C@H]([C@H](C(=O)Nc1cc(C(CC(=O)O)C2CC2)ccc1Cl)c1ccc(Cl)cc1)C(F)(F)F (single isomer, unassigned; (+)) [Example 22]
minimal effective concentration [1]: 0.0018 µM
